Legend:
[1] = target: cGMP-inhibited 3',5'-cyclic phosphodiesterase 3A (Homo sapiens) (UniProt Q14432); assay: Inhibition of recombinant PDE3A (unknown origin) using FAM-cAMP as substrate at 10 uM incubated for 60 mins by fluorescence plate reader analysis
[2] = Intrinsic clearance in rat liver microsomes at 5 uM by LC-MS/MS analysis; assay type: ADME, Microsome; conditions: read-out: CLH

Sequence of cGMP-inhibited 3',5'-cyclic phosphodiesterase 3A (Homo sapiens) (Q14432 whole entry): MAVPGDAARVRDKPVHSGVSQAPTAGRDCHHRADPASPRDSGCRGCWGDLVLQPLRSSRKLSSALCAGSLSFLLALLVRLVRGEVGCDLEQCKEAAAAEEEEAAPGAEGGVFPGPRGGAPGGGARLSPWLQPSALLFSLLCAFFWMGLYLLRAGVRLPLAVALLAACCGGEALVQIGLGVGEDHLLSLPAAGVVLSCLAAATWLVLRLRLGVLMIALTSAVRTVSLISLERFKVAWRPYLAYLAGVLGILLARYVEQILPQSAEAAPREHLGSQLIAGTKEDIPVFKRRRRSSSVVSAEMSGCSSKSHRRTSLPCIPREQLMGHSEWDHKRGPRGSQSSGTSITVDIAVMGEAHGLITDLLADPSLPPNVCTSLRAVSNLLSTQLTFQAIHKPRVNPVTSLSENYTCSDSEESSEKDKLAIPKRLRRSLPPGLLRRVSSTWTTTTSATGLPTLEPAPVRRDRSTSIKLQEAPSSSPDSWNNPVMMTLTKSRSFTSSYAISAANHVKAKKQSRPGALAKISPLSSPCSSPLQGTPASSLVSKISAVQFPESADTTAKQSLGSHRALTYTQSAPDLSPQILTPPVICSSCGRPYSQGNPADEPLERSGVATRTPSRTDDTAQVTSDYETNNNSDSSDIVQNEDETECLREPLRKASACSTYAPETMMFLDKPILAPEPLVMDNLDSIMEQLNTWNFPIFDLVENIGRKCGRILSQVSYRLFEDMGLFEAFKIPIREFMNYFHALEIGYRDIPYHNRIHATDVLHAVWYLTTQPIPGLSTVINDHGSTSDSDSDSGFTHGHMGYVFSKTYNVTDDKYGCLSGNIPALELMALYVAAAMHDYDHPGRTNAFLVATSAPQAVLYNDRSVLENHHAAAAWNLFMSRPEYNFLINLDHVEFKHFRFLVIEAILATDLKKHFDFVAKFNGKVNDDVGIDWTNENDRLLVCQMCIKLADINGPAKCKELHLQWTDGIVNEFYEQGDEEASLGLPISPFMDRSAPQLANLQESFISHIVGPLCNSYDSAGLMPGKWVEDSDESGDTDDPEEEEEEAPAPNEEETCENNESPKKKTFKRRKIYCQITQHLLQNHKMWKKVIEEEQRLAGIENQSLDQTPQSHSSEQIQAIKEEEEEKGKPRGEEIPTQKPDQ

inhibition [1]: 1%
microsomal CLint at 5 µM [2]: 52.8 µL/min/mg
SMILES: C=CCn1cc(-c2nc3ccccc3nc2Cl)c2cc(OC)ccc21
